System: 454973-116-R2-J3-PDC spheroids, percent test/control viability
Test: Anticancer human tumor 454973-116-R2-J3-PDC patient-derived pancreatic carcinoma cell line growth inhibition [CLK]
Conditions: spheroids with HUVEC and MSC; for IC50: curve of first compound; for viability, T/C: stronger effect = lower value; active = viability on the fitted dose curve at most 10% of control; inactive = the rest
Method in brief: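 Patient-derived tumor cells grown as complex spheroids with HUVEC endothelial cells and mesenchymal stem cells, treated with drug combinations. Concentrations descend in half-log steps from near clinical Cmax, or from 10 microM if Cmax unknown.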

[1] = second compound 0.0316 µM, first compound 0.0316 µM
[2] = second compound 0.0316 µM, first compound 0.1 µM
[3] = second compound 0.0316 µM, first compound 0.316 µM
[4] = second compound 0.0316 µM, first compound 1 µM
[5] = second compound 0.0316 µM, first compound 3.16 µM
[6] = second compound 0.0316 µM, first compound 10 µM
[7] = second compound 0.1 µM, first compound 0.0316 µM
[8] = second compound 0.1 µM, first compound 0.1 µM
[9] = second compound 0.1 µM, first compound 0.316 µM
[10] = second compound 0.1 µM, first compound 1 µM
[11] = second compound 0.1 µM, first compound 3.16 µM
[12] = second compound 0.1 µM, first compound 10 µM
[13] = second compound 0.316 µM, first compound 0.0316 µM
[14] = second compound 0.316 µM, first compound 0.1 µM
[15] = second compound 0.316 µM, first compound 0.316 µM
[16] = second compound 0.316 µM, first compound 1 µM
[17] = second compound 0.316 µM, first compound 3.16 µM
[18] = second compound 0.316 µM, first compound 10 µM
[19] = second compound 1 µM, first compound 0.0316 µM
[20] = second compound 1 µM, first compound 0.1 µM
[21] = second compound 1 µM, first compound 0.316 µM
[22] = second compound 1 µM, first compound 1 µM
[23] = second compound 1 µM, first compound 3.16 µM
[24] = second compound 1 µM, first compound 10 µM
[25] = second compound 3.16 µM, first compound 0.0316 µM
[26] = second compound 3.16 µM, first compound 0.1 µM
[27] = second compound 3.16 µM, first compound 0.316 µM
[28] = second compound 3.16 µM, first compound 1 µM
[29] = second compound 3.16 µM, first compound 3.16 µM
[30] = second compound 3.16 µM, first compound 10 µM
[31] = second compound 10 µM, first compound 0.0316 µM
[32] = second compound 10 µM, first compound 0.1 µM
[33] = second compound 10 µM, first compound 0.316 µM
[34] = second compound 10 µM, first compound 1 µM
[35] = second compound 10 µM, first compound 3.16 µM
[36] = second compound 10 µM, first compound 10 µM
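Also: spheroids exposed to compounds for 7 days before readout.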

CC(=O)O[C@H]1C(=O)[C@@]2(C)[C@H]([C@H](OC(=O)c3ccccc3)[C@]3(O)C[C@H](OC(=O)[C@H](O)[C@@H](NC(=O)c4ccccc4)c4ccccc4)C(C)=C1C3(C)C)[C@]1(OC(C)=O)CO[C@@H]1C[C@@H]2O + CNC(=O)c1ccc(Nc2nc(OC3CCCC3)c3c(-c4ccc5nc(C)oc5c4)c[nH]c3n2)c(OC)c1
inactive: viability, T/C [1] 7.2% | viability, T/C [2] 10.3% | viability, T/C [3] 8.05% | viability, T/C [4] 8.91% | viability, T/C [5] 7.98% | viability, T/C [6] 26.6% | viability, T/C [11] 14.3% | viability, T/C [12] 38% | viability, T/C [13] 33.1% | viability, T/C [14] 39.2% | viability, T/C [15] 43.9% | viability, T/C [16] 48.2% | viability, T/C [17] 83% | viability, T/C [18] 110% | viability, T/C [19] 45.3% | viability, T/C [20] 50.2% | viability, T/C [21] 54.3% | viability, T/C [22] 60.5% | viability, T/C [23] 88.4% | viability, T/C [24] 89.6% | viability, T/C [25] 38.8% | viability, T/C [26] 46.5% | viability, T/C [27] 54.1% | viability, T/C [28] 51.5% | viability, T/C [29] 74.2% | viability, T/C [30] 86.5% | viability, T/C [31] 36.8% | viability, T/C [32] 43.2% | viability, T/C [33] 49.7% | viability, T/C [34] 60.2% | viability, T/C [35] 77.1% | viability, T/C [36] 84.3%
< 0.0316 µM: IC50 (second compound 0.0316 µM) | IC50 (second compound 0.1 µM) | IC50 (second compound 0.316 µM) | IC50 (second compound 1 µM) | IC50 (second compound 3.16 µM) | IC50 (second compound 10 µM)
active: viability, T/C [7] 10.1% | viability, T/C [8] 8.61% | viability, T/C [9] 9.22% | viability, T/C [10] 10.1%

COc1cccc2c1C(=O)c1c(O)c3c(c(O)c1C2=O)CC(O)(C(=O)CO)CC3OC1CC(N)C(O)C(C)O1 (centres undefined) + CNC(=O)c1ccc(Nc2nc(OC3CCCC3)c3c(-c4ccc5nc(C)oc5c4)c[nH]c3n2)c(OC)c1
< 0.0316 µM: IC50 (second compound 0.1 µM) | IC50 (second compound 0.316 µM) | IC50 (second compound 1 µM) | IC50 (second compound 3.16 µM) | IC50 (second compound 10 µM)
active: viability, T/C [4] 6.66% | viability, T/C [5] 1.89% | viability, T/C [6] 1.95% | viability, T/C [10] 4.09% | viability, T/C [11] 2.62% | viability, T/C [12] 1.16% | viability, T/C [16] 4.53% | viability, T/C [17] 2.76% | viability, T/C [18] 1.6% | viability, T/C [21] 9.38% | viability, T/C [22] 1.17% | viability, T/C [23] 0.61% | viability, T/C [24] 0.81% | viability, T/C [27] 4.87% | viability, T/C [28] 0.94% | viability, T/C [29] 1.27% | viability, T/C [30] 0.57% | viability, T/C [33] 3.72% | viability, T/C [34] 0.69% | viability, T/C [35] 1.84% | viability, T/C [36] 0.97%
0.0316 µM: IC50 (second compound 0.0316 µM)
inactive: viability, T/C [1] 51.4% | viability, T/C [2] 23% | viability, T/C [3] 21.7% | viability, T/C [7] 46.4% | viability, T/C [8] 26.4% | viability, T/C [9] 19.6% | viability, T/C [13] 27.8% | viability, T/C [14] 25% | viability, T/C [15] 14.5% | viability, T/C [19] 25.2% | viability, T/C [20] 18.5% | viability, T/C [25] 26.2% | viability, T/C [26] 17.2% | viability, T/C [31] 25.1% | viability, T/C [32] 20.3%

Reference: PubChem BioAssay AID2060618 (Molecular Pharmacology Branch, DTP, NCI, 2025)
